From patent US8629102B2, “3-hydroxyisothiazole 1-oxide derivatives” (Mochida Pharmaceutical Co., Ltd., priority 2011, dated 2014)

Target: T1, GPR40 of human origin (Homo sapiens, UniProt O14842)
T1 construct: expressed in transfected cells
Experiment: Agonist action on GPR40 of human origin (intracellular Ca2+ change)
Type: cell-based
Conditions: CHO cell strain stably expressing GPR40 of human origin; change in Ca2+ concentration, fluorescent calcium indicator
Procedure, shortened: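 CHO cells stably expressing human GPR40, cultured overnight, then loaded 1 h with Calcium 4 dye plus probenecid in HEPES-buffered HBSS. Compound added in 20 mM HEPES-HBSS; intracellular Ca2+ change read by fluorescence, EC50 from dose-response of fluorescence change.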

T1 sequence (O14842 whole entry): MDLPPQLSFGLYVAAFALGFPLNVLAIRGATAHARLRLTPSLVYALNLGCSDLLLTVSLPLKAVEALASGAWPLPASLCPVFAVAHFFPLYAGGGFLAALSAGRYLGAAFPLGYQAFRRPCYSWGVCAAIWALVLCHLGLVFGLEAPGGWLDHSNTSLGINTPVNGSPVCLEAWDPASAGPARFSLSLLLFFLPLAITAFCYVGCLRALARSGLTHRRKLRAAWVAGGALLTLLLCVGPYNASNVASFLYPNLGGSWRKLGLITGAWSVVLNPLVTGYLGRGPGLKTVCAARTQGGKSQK

With `[O-][s+]1nc(O)cc1-c1ccc(O[C@@H]2CCc3c(-c4ccccc4OCc4ccccc4)cccc32)cc1` (stereo partly drawn) [Example 42, 5-(4-(((R)-4-(2-benzyloxyphenyl)-2,3-dihydro-1H-inden-1-yl)oxy)phenyl)-3-hydroxyisothiazole 1-oxide] as the compound, how does the EC50 read?
Its EC50 is under 300 nM.

How did the EC50 turn out when `Cc1cccc(C)c1N1CCC(COc2ccc(-c3cc(O)n[s+]3[O-])cc2)C1` (stereo not shown) [Example 121, 5-(4-((1-(2,6-dimethylphenyl)pyrrolidin-3-yl)methoxy)phenyl)-3-hydroxyisothiazole 1-oxide] was run?
The EC50 was 300 to 3000 nM.

How did the EC50 turn out when `[O-][s+]1nc(O)cc1-c1ccc(O[C@@H]2CCc3c(-c4ccc(Cl)cc4C(F)(F)F)cccc32)cc1` (stereo partly drawn) [Example 69, 5-(4-(((R)-4-(4-chloro-2-trifluoromethylphenyl)-2,3-dihydro-1H-inden-1-yl)oxy)phenyl)-3-hydroxyisothiazole 1-oxide] was run?
The EC50 was 300 to 3000 nM.

For `CC(C)(O)CCOc1cccc(Oc2cccc3c2CC[C@H]3Oc2ccc(-c3cc(O)n[s+]3[O-])cc2)c1` (stereo partly drawn) [Example 112, 3-hydroxy-5-(4-(((R)-4-(3-(3-hydroxy-3-methylbutoxy)phenoxy)-2,3-dihydro-1H-inden-1-yl)oxy)phenyl)isothiazole 1-oxide], which EC50 is on record?
Its EC50 is under 300 nM.

Which EC50 does the source give for `COc1cccc(Oc2cccc3c2CC[C@H]3Oc2ccc(-c3cc(O)n[s+]3[O-])cc2)c1` (stereo partly drawn) [Example 91, 3-hydroxy-5-(4-(((R)-4-(3-methoxyphenoxy)-2,3-dihydro-1H-inden-1-yl)oxy)phenyl)isothiazole 1-oxide] here?
Its EC50 is under 300 nM.

For `CS(=O)(=O)CCCOc1ccc(Oc2cccc3c2CC[C@H]3Oc2ccc(-c3cc(O)n[s+]3[O-])cc2)cc1` (stereo partly drawn) [Example 115, 3-hydroxy-5-(4-(((R)-4-(4-(3-(methylsulfonyl)propoxy)phenoxy)-2,3-dihydro-1H-inden-1-yl)oxy)phenyl)isothiazole 1-oxide], which EC50 is on record?
The EC50 was under 300 nM.

For `[O-][s+]1nc(O)cc1-c1ccc(O[C@@H]2CCc3c(-c4ccccc4F)cccc32)cc1` (stereo partly drawn) [Example 11, 5-(4-(((R)-4-(2-fluorophenyl)-2,3-dihydro-1H-inden-1-yl)oxy)phenyl)-3-hydroxyisothiazole 1-oxide], which EC50 is on record?
The EC50 was under 300 nM.

How did the EC50 turn out when `COc1ccc(-c2cccc3c2CC[C@H]3Oc2ccc(-c3cc(O)n[s+]3[O-])cc2)c(C)c1` (stereo partly drawn) [Example 40, 5-(4-(((R)-4-(4-methoxy-2-methylphenyl)-2,3-dihydro-1H-inden-1-yl)oxy)phenyl)-3-hydroxyisothiazole 1-oxide] was run?
The EC50 was under 300 nM.

`Cc1ccccc1Oc1cccc2c1CC[C@H]2Oc1ccc(-c2cc(O)n[s+]2[O-])cc1` (stereo partly drawn) [Example 95, 3-hydroxy-5-(4-(((R)-4-(o-tolyloxy)-2,3-dihydro-1H-inden-1-yl)oxy)phenyl)isothiazole 1-oxide] was tested. Which EC50 did it give?
The EC50 was under 300 nM.

`COc1cccnc1Oc1cccc2c1CC[C@H]2Oc1ccc(-c2cc(O)n[s+]2[O-])cc1` (stereo partly drawn) [Example 132, 3-hydroxy-5-(4-(((R)-4-((3-methoxypyridin-2-yl)oxy)-2,3-dihydro-1H-inden-1-yl)oxy)phenyl)isothiazole 1-oxide] was tested. Which EC50 did it give?
The EC50 was 300 to 3000 nM.

With `[O-][s+]1nc(O)cc1-c1ccc(O[C@@H]2CCc3c(Oc4ccc(CCO)cc4)cccc32)cc1` (stereo partly drawn) [Example 88, 3-hydroxy-5-(4-(((R)-4-(4-(2-hydroxyethyl)phenoxy)-2,3-dihydro-1H-inden-1-yl)oxy)phenyl)isothiazole 1-oxide] as the compound, how does the EC50 read?
Its EC50 is under 300 nM.

How did the EC50 turn out when `Cc1ccc(-c2cccc3c2CC[C@H]3Oc2ccc(-c3cc(O)n[s+]3[O-])cc2)c2ccccc12` (stereo partly drawn) [Example 50, 5-(4-(((R)-4-(4-methylnaphthalen-1-yl)-2,3-dihydro-1H-inden-1-yl)oxy)phenyl)-3-hydroxyisothiazole 1-oxide] was run?
Its EC50 is 300 to 3000 nM.

How did the EC50 turn out when `N#Cc1ccc(Oc2cccc3c2CC[C@H]3Oc2ccc(-c3cc(O)n[s+]3[O-])cc2)cc1N1CCOC1=O` (stereo partly drawn) [Example 131, 4-(((R)-1-(4-(3-hydroxy-1-oxidoisothiazol-5-yl)phenoxy)-2,3-dihydro-1H-inden-4-yl)oxy)-2-(2-oxooxazolidin-3-yl)benzonitrile] was run?
Its EC50 is under 300 nM.
